Here are results for 19 molecules from US20220009914A1, “Analogs of Nitrofuran Antibiotics to Combat Resistance” (The Trustees of Indiana University, priority 2020, published 2022).

One assay has as its target T1, native MDH (Sus scrofa, UniProt P00346).
T1 sequence (P00346 25-338): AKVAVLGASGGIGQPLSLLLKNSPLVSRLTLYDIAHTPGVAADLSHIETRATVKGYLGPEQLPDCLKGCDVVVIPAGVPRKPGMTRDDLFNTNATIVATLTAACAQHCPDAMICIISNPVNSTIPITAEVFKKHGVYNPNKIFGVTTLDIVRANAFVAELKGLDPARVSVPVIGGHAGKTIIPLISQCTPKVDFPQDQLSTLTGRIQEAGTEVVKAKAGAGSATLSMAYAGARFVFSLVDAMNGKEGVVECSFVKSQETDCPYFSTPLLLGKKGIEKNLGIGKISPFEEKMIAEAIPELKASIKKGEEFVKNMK
Nature of the assay: native MDH activity counter-screen in the presence of E. coli NfsB nitroreductase. Type of assay: biochemical, pig. On the procedure: Evaluating compounds for inhibition in the GroEL/ES-mediated dMDH refolding assay and native MDH activity counter-screen in the presence of E. coli NfsB nitroreductase. These assays were performed nearly identically to those mentioned above, but with a couple distinct modifications. […] The remainder of the assay was conducted as in our standard protocol where no NfsB nitroreductase was present. […] Results presented represent the averages of IC50 values obtained from at least four replicates in each assay.

Assay [1] relates to Enterobacter cloacae strain CDC 442-68 (ATCC #13047). Nature of the assay: bacterial proliferation assay, E. cloacae. Type of assay: cell-based. The conditions noted are these: ATCC13047, read-out: Bacterial Proliferation EC50 E. cloacae. As for the experimental part:
(§1) All compounds were evaluated for inhibiting the proliferation of E. coli and each of the ESKAPE bacteria. Results presented represent the averages of EC50 values obtained from at least four replicates. Evaluating compounds for inhibition of bacterial cell proliferation.
(§2) Growth Media: E. coli were grown with LB medium and all ESKAPE bacteria were grown in Brain Heart Infusion (BHI) medium (Becton, Dickinson and Company), with all liquid cultures supplemented with 25 mg/L Ca^2+ and 12.5 mg/L Mg^2+ to mimic physiological free concentrations of these cations. A 10 mg/mL Ca^2+ stock solution was prepared by dissolving 1.84 g of CaCl2.2H2O in 50 mL of deionized water, and a 10 mg/mL Mg^2+ stock solution was prepared by dissolving 4.18 g of MgCl2.6H2O in 50 mL deionized water—filter sterilized using 0.2 μm cellulose-acetate filters. 2.5 mL of the sterile 10 mg/mL Ca^2+ stock and 1.25 mL of the sterile 10 mg/mL Mg^2+ stock solutions were added per 1 L of autoclaved LB or BHI media to obtain 25 mg/L Ca^2+ and 12.5 mg/L Mg^2+ ions, respectively.
(§3) General Assay Protocol: Stock bacterial cultures were streaked onto LB or BHI agar plates and grown overnight at 37° C. Fresh aliquots of cation supplemented media were inoculated with single bacterial colonies and the cultures were grown overnight at 37° C. with shaking (240 rpm). The following morning, cultures were diluted 10-fold into fresh media and grown at 37° C. until bacteria had reached mid-log phase growth (OD600˜0.4-0.6). The cultures were then diluted into fresh media to achieve final OD600 readings of 0.017. Aliquots of these diluted cultures (30 μL) were added to clear, flat-bottom 384-well polystyrene plates that were previously stamped with 0.5 μL of test compounds in 20 μL of media (yielding initial OD600=0.01 bacterial cultures). All compounds were tested in dose-response with concentration ranges during the proliferation assays from 100 μM to 46 nM (3-fold dilution series). A second set of baseline control plates were prepared analogously, but without any bacteria added, to correct for possible compound absorbance and/or precipitation. […] Plates were then read at 600 nm using a Molecular Devices SpectraMax Plus384 microplate reader. […] Results presented represent the averages of EC50 values obtained from at least four replicates.
(§4) Evaluating analogs for inhibiting the growth of E. coli and the ESKAPE bacteria. Analogs were initially tested for antibacterial efficacy against representative strains of antibiotic-sensitive E. coli and the ESKAPE bacteria. To determine compound efficacy, bacterial proliferation assays were carried out in liquid media culture supplemented with physiological concentrations of free calcium and magnesium cations. For these assays, bacterial cultures (OD600=0.01) were exposed to test compounds in 8-point, 3-fold dilution series (100 μM to 46 nM concentration range), in 384-well plates. After addition of compounds to cultures, the plates were sealed with Breathe-Easy gas permeable membranes and allowed to grow to mid-log phase (OD600˜0.4-0.6), whereupon final OD600 readings were taken to assess for bacterial growth and inhibition.

Assay [2] relates to NEB 5-alpha Escherichia coli. Kind of assay: bacterial proliferation assay, E. coli. Type of assay: cell-based. The conditions noted are these: for EC50: read-out: Bacterial Proliferation EC50 E. coli. On the procedure:
as §1, §2, §3, §4

Setting [3] is: with E. coli NfsB nitroreductase, read-out: Native MDH Activity w/NfsB IC50.

Like-named read-outs stand apart in the source and are kept apart here.

In the case of `CCOc1ccc(S(=O)(=O)Nc2ccc(C(=O)N/N=C/c3ccc(O)c4ncccc34)cc2)cc1` [Compound 15, 4-ethoxy-N-(4-(2-((8-hydroxyquinolin-5-yl)methylene)hydrazine-1-carbonyl)phenyl)benzenesulfonamide], on native MDH (setting [3]), the IC50 is over 56 µM. The EC50 in assay [1] and in assay [2] (Escherichia coli) was over 100 µM each time.

In the case of `O=Cc1ccc([N+](=O)[O-])o1` [Compound 41, reference compound], the IC50 on native MDH (setting [3]) is over 56 µM. Besides, the EC50 in assay [1] worked out at 13 µM; in assay [2] (Escherichia coli), 9.5 µM.

For the molecule `COc1ccc(C(=O)N/N=C/c2ccccc2)cc1` [Compound 37, N′-benzylidene-4-methoxybenzohydrazide], on native MDH (setting [3]), the IC50 was over 56 µM. The EC50 in assay [1] and in assay [2] (Escherichia coli) was over 100 µM each time.

With `COc1ccc(C(=O)N/N=C/c2cccc3ccccc23)cc1` [Compound 33, 4-methoxy-N′-(naphthalen-1-ylmethylene)benzohydrazide], the IC50 at native MDH (setting [3]) is over 56 µM. In addition, the EC50 in assay [1] and in assay [2] (Escherichia coli) was over 100 µM throughout.

As for `O=C1CN(/N=C/c2ccc(O)c3ncccc23)C(=O)N1` [Compound 2, 1-(((8-hydroxyquinolin-5-yl)methylene)amino)imidazolidine-2,4-dione], on native MDH (setting [3]), the IC50 was over 56 µM. For the same molecule, the values for the EC50 in assay [1] and in assay [2] (Escherichia coli) were over 100 µM and 80 µM, respectively.

As for `CCN(CC)S(=O)(=O)c1cccc(C(=O)N/N=C/c2ccc(O)c3ncccc23)c1` [Compound 12, N,N-diethyl-3-(2-((8-hydroxyquinolin-5-yl)methylene)hydrazine-1-carbonyl)benzenesulfonamide], the IC50 at native MDH (setting [3]) is over 56 µM. Further, the results for the EC50 in assay [1] and in assay [2] (Escherichia coli) were over 100 µM and 99 µM, respectively.

For `O=C(N/N=C/c1ccc(O)c2ncccc12)c1ccccc1` [Compound 5, N′-((8-hydroxyquinolin-5-yl)methylene)benzohydrazide], the IC50 on native MDH (setting [3]) was over 56 µM. Moreover, the EC50 in assay [1] amounted to 80 µM; in assay [2] (Escherichia coli) it was 63 µM.

Regarding `O=C(N/N=C/c1ccc(O)c2ncccc12)c1ccc(NS(=O)(=O)c2ccc(Br)cc2)cc1` [Compound 14, 4-bromo-N-(4-(2-((8-hydroxyquinolin-5-yl)methylene)hydrazine-1-carbonyl)phenyl)benzenesulfonamide], on native MDH (setting [3]), the IC50 is over 56 µM. The figures for the EC50 in assay [1], in assay [2] (Escherichia coli) and in assay [2] were over 100 µM, at least 100 µM and over 100 µM, respectively.

For the molecule `O=C(N/N=C/c1ccc(O)c2ncccc12)c1cccc2ccccc12` [Compound 9, N′-((8-hydroxyquinolin-5-yl)methylene)-1-naphthohydrazide], the IC50 on native MDH (setting [3]) was over 56 µM. Moreover, the EC50 in assay [1] and in assay [2] (Escherichia coli) was over 100 µM throughout.

In the case of `O=C(N/N=C/c1cccc2ncccc12)c1ccccc1` [Compound 32, N′-(quinolin-5-ylmethylene)benzohydrazide], the IC50 on native MDH (setting [3]) is over 56 µM. Also, the EC50 in assay [1] and in assay [2] (Escherichia coli) was over 100 µM each time.

Take `COc1ccc(C(=O)N/N=C/c2ccco2)cc1` [Compound 39, N′-(furan-2-ylmethylene)-4-methoxybenzohydrazide]: the IC50 on native MDH (setting [3]) is over 56 µM. Further, the EC50 in assay [1] and in assay [2] (Escherichia coli) was over 100 µM in each case.

Consider `O=C(N/N=C/c1ccc(O)c2ncccc12)c1ccc(Cl)s1` [Compound 4, 5-chloro-N′-((8-hydroxyquinolin-5-yl)methylene)thiophene-2-carbohydrazide], for which the IC50 at native MDH (setting [3]) is over 56 µM. The EC50 in assay [1] and in assay [2] (Escherichia coli) was over 100 µM each time.

On to `O=C(N/N=C/c1ccc([N+](=O)[O-])o1)c1ccc(O)cc1` [Nifuroxazide, reference compound], for which the IC50 at native MDH is over 56 µM. Besides, the EC50 in assay [1] worked out at 54 µM; in assay [2] (Escherichia coli), 0.87 µM. Besides, in assay [2], the “inhibition of E. coli proliferation in words” value is given as “potent inhibitors”.

Take `COc1ccc(C(=O)N/N=C/c2cccc3ncccc23)cc1` [Compound 31, 4-methoxy-N′-(quinolin-5-ylmethylene)benzohydrazide]: at native MDH (setting [3]), the IC50 is over 56 µM. For the same molecule, the EC50 in assay [1] and in assay [2] (Escherichia coli) was over 100 µM throughout.

Turning to `CCN(CC)S(=O)(=O)c1cccc(C(=O)N/N=C/c2ccc([N+](=O)[O-])o2)c1` [Compound 25, N,N-diethyl-3-(2-((5-nitrofuran-2-yl)methylene)hydrazine-1-carbonyl)benzenesulfonamide], the IC50 at native MDH (setting [3]) is over 56 µM. Also, the EC50 in assay [1] and in assay [2] (Escherichia coli) was over 100 µM in each case.

As for `O=C(N/N=C/c1ccc(O)c2ncccc12)c1ccc(O)cc1` [Compound 7, 4-hydroxy-N′-((8-hydroxyquinolin-5-yl)methylene)benzohydrazide], on native MDH (setting [3]), the IC50 was over 56 µM. The EC50 in assay [1] worked out at 97 µM; in assay [2] (Escherichia coli), 46 µM.

As for `COc1ccc(C(=O)N/N=C/c2ccc(O)c3ncccc23)cc1` [Compound 1, N′-((8-hydroxyquinolin-5-yl)methylene)-4-methoxybenzohydrazide], the IC50 at native MDH (setting [3]) is over 56 µM. The EC50 in assay [1] is 100 µM; in assay [2] (Escherichia coli) it was over 100 µM.

As to `CCOc1ccc(S(=O)(=O)Nc2ccc(C(=O)N/N=C/c3ccc([N+](=O)[O-])o3)cc2)cc1` [Compound 28, 4-ethoxy-N-(4-(2-((5-nitrofuran-2-yl)methylene)hydrazine-1-carbonyl)phenyl)benzenesulfonamide], the IC50 on native MDH (setting [3]) was over 56 µM. In addition, the EC50 in assay [1] and in assay [2] (Escherichia coli) was over 100 µM in each case.

For `O=C(N/N=C/c1cccc2ccccc12)c1ccccc1` [Compound 34, N′-(naphthalen-1-ylmethylene)benzohydrazide], the IC50 at native MDH (setting [3]) was over 56 µM. Besides, the EC50 in assay [1] and in assay [2] (Escherichia coli) was over 100 µM throughout.
